US20240294551A1 (AMGEN INC., priority 2022, published 2024)
Where two headings read alike, the source gives them in different places.

What was measured:
[1] = target: His-tagged KRAS G12D protein (Homo sapiens (Human), UniProt P01116, G12D); assay: KRAS G12D TR-FRET Assay; format: binding; conditions: read-out: KRAS G12D Binding IC50
In short: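 Each incubation ran at room temperature: enzyme with compound for 30 minutes, peptide for one hour, and detection reagents (0.4 nM europium anti-6×His, 5 nM streptavidin-d2) for one hour more. Protein and peptide stocks were each diluted to 20 nM before addition.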

[2] = target: GDP-bound KRAS protein (aa 1-169), containing both G12D and C118A amino acid substitutions (Homo sapiens (Human), UniProt P01116, C118A/G12D); assay: KRAS G12D Coupled Nucleotide Exchange Assay; format: biochemical; conditions: read-out: KRAS G12D Coupled Exchange IC50
GDP-bound KRAS protein (aa 1-169), containing both G12D and C118A amino acid substitutions, sequence (P01116 other isoform, or with tags, fused parts or gaps G12D/C118A): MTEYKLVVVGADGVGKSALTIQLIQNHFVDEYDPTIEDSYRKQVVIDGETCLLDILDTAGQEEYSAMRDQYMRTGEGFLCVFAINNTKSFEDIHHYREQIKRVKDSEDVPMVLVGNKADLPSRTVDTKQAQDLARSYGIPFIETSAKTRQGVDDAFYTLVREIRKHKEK

[3] = tested on: Phosphorylation of ERK1/2 in AsPC-1 cells; assay: Phospho-ERK1/2 MSD Assay; format: cell-based, human; conditions: read-out: 2 h p-ERK (AsPC-1 cells), IC50
In short: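 Read-out: MSD electrochemiluminescent detection of phosphorylated ERK1/2 in whole-cell lysates, fitted to a 4-parameter logistic curve for IC50. Prior to lysis, AsPC-1 cells (25,000 per well) received a 2 h compound dose-response at 37 °C.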

AsPC-1 cells = assay: AsPC-1 CTG Assay (CellTiter-Glo cell viability); format: cell-based, human; conditions: AsPC-1, 72 h, first value of the cell, read-out: G12D/C/V Cell Proliferation CTG (72 h) AsPC-1
In short: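 IC50 values derive from 4-parameter logistic fits of CellTiter-Glo luminescence, expressed relative to DMSO. Compound dilution series were applied to overnight-seeded AsPC-1 or SW620 cells (RPMI 1640, 10% FBS) for 72 h at 37 °C, 5% CO2.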

His-tagged KRAS G12D protein, sequence (P01116 other isoform, or with tags, fused parts or gaps G12D): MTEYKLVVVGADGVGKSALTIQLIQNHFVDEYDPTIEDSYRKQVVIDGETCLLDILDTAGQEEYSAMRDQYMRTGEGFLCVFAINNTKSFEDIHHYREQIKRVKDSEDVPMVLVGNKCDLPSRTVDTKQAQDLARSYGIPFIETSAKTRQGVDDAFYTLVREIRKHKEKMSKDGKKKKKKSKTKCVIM

| SMILES | IC50 [1] | IC50 [2] | IC50 ([3]; Homo sapiens, ASPC1, 2 h) | IC50 (AsPC-1 cells; Homo sapiens, ASPC1, 72 h) | IC50 ([3]; 2 h) | IC50 (AsPC-1 cells) |
| --- | --- | --- | --- | --- | --- | --- |
| CN1C(=O)CC[C@@H]2C[C@@H]2c2c(Cl)cc3[nH]ncc3c2-c2ncc3c(nc(OC[C@@]45CCCN4C[C@H](F)C5)nc3c2F)N2CCC[C@@H]1C2 [Example 128, (11S,13R,18R)-9-Chloro-31-fluoro-25-(((2R,7aS)-2-fluorotetrahydro-1H-pyrrolo[1,2-a]pyrrol-7a(5H)-yl)methoxy)-17-methyl-5,6,17,22,24,26,30-heptaazaheptacyclo[25.3.1.1˜18,22˜.0˜2,10˜.0˜3,7˜.0˜11,13˜.0˜23,28˜]dotriaconta-1(31),2,4,7,9,23,25,27,29-nonaen-16-one bis (2,2,2-trifluoroacetate)] | 68 nM | 46 nM | 248 nM | 1260 nM | – | – |
| Cc1cc2[nH]ncc2c2c1C/C=C/COC[C@@H]1CCCN(C1)c1nc(OC[C@@]34CCCN3C[C@H](F)C4)nc3c(F)c-2ncc13 [Example 130] | 5 nM | 2 nM | 32 nM | 230 nM | – | – |
| Fc1c2ncc3c(nc(OC[C@@]45CCCN4C[C@H](F)C5)nc13)N1CCC[C@@H](COCCCCc3c(Cl)cc4[nH]ncc4c3-2)C1 [Example 138] | 4 nM | 2 nM | 13 nM | 5000 nM | – | – |
| Fc1c2ncc3c(nc(OC[C@@]45CCCN4C[C@H](F)C5)nc13)N1CCC[C@@H](CCOCCCc3c(Cl)cc4[nH]ncc4c3-2)C1 [Example 139] | 6 nM | 3 nM | 114 nM | 910 nM | – | – |
| O=S1(=O)CCCCc2c(Cl)cc3[nH]ncc3c2-c2ncc3c(nc(OC[C@@]45CCCN4C[C@H](F)C5)nc3c2F)N2CCC[C@H](C2)C1 [Example 145] | 68 nM | 63 nM | 4670 nM | 5000 nM | – | – |
| CN1C(=O)CCCc2c(F)ccc3cccc(c23)-c2ncc3c(nc(OC[C@@]45CCCN4C[C@H](F)C5)nc3c2F)N2CCC[C@]1(C)C2 [Example 167, (15R)-22,31-difluoro-8-(((2R,7aS)-2-fluorotetrahydro-1H-pyrrolo[1,2-a]pyrrol-7a(5H)-yl)methoxy)-15,16-dimethyl-3,7,9,11,16-pentaazahexacyclo[19.7.1.1~2,6~.1~11,15~.0~5,10~.0~25,29~]hentriaconta-1(29),2(31),3,5,7,9,21,23,25,27-decaen-17-one] | 44 nM | 20 nM | 1590 nM | 5000 nM | – | – |
| Cc1cc2[nH]ncc2c2c1CCCCC(=O)N[C@H]1CN(C[C@H]3C[C@H]31)c1nc(OC[C@@]34CCCN3C[C@H](F)C4)nc3c(F)c-2ncc13 [Example 171, (26R,27R,29S)-32-fluoro-4-(((2R,7aS)-2-fluorotetrahydro-1H-pyrrolo[1,2-a]pyrrol-7a(5H)-yl)methoxy)-18-methyl-1,3,5,9,14,15,25-heptaazaheptacyclo[24.4.1.1~6,10~.0~2,7~.0~11,19~.0~12,16~.0~27,29~]dotriaconta-2,4,6,8,10(32),11,13,16,18-nonaen-24-one] | 6 nM | 4 nM | 106 nM | 1090 nM | – | – |
| O=C1N[C@H]2CN(C[C@H]3C[C@H]32)c2nc(OC[C@@]34CCCN3C[C@H](F)C4)nc3c(F)c(ncc23)-c2c(c(Cl)cc3[nH]ncc23)CCC[C@@H]1F [Example 175, (23S,26R,27R,29S)-18-chloro-23,32-difluoro-4-(((2R,7aS)-2-fluorotetrahydro-1H-pyrrolo[1,2-a]pyrrol-7a(5H)-yl)methoxy)-1,3,5,9,14,15,25-heptaazaheptacyclo[24.4.1.1~6,10~.0~2,7~.0~11,19~.0~12,16~.0~27,29~]dotriaconta-2,4,6,8,10(32),11,13,16,18-nonaen-24-one] | 5 nM | 4 nM | 27.7 nM | 123 nM | – | – |
| O=C1OCCCc2c(Cl)cccc2-c2ncc3c(nc(OC[C@@]45CCCN4C[C@H](F)C5)nc3c2F)N2CCOC[C@H](C2)O1 [Example 186, (23S)-15-chloro-29-fluoro-4-(((2R,7aS)-2-fluorotetrahydro-1H-pyrrolo[1,2-a]pyrrol-7a(5H)-yl)methoxy)-20,22,25-trioxa-1,3,5,9-tetraazapentacyclo[21.4.1.1~6,10~.0~2,7~.0~11,16~]nonacosa-2,4,6,8,10(29),11,13,15-octaen-21-one] | 12 nM | 9 nM | – | – | 200 nM | 1950 nM |
| Cc1cc2[nH]ncc2c2c1CCOC(=O)O[C@H]1C[C@]3(CCCN(C3)c3nc(OC[C@@]45CCCN4C[C@H](F)C5)nc4c(F)c-2ncc34)C1 [Example 193, (1R,3S)-32-fluoro-24-(((2R,7aS)-2-fluorotetrahydro-1H-pyrrolo[1,2-a]pyrrol-7a(5H)-yl)methoxy)-10-methyl-4,6-dioxa-13,14,19,23,25,27-hexaazaheptacyclo[25.3.1.1~1,3~.1~18,22~.0~9,17~.0~12,16~.0~21,26~]tritriaconta-9,11,14,16,18(32),19,21,23,25-nonaen-5-one] | 49 nM | 24 nM | 23.9 nM | 60 nM | – | – |
| Cc1cc2[nH]ncc2c2c1CCCOC(=O)O[C@@H]1CCCCN(C1)c1nc(OC[C@@H]3CCCN3C)nc3c(F)c-2ncc13 [Example 206, (26R)-32-fluoro-18-methyl-4-(((2S)-1-methyl-2-pyrrolidinyl)methoxy)-23,25-dioxa-1,3,5,9,14,15-hexaazahexacyclo[24.4.1.1~6,10~.0~2,7~.0~11,19~.0~12,16~]dotriaconta-2,4,6,8,10(32),11,13,16,18-nonaen-24-one] | 14 nM | 9 nM | 211 nM | 2230 nM | – | – |
| CC(=O)n1ncc2c3c(c(Cl)cc21)CCCOC(=O)O[C@@H]1COCCN(C1)c1nc(OC[C@@]24CCCN2C[C@H](F)C4)nc2c(F)c-3ncc12 [Example 213, (26S)-15-Acetyl-18-chloro-32-fluoro-4-(((2R,7aS)-2-fluorotetrahydro-1H-pyrrolo[1,2-a]pyrrol-7a(5H)-yl)methoxy)-23,25,28-trioxa-1,3,5,9,14,15-hexaazahexacyclo[24.4.1.1˜6,10˜.0˜2,7˜.0˜11,19˜.0˜12,16˜]dotriaconta-2,4,6(32),7,9,11,13,16,18-nonaen-24-one] | 46 nM | 15 nM | 4.9 nM | 5 nM | – | – |
| Fc1c2ncc3c(nc(OC[C@@]45CCCN4C[C@H](F)C5)nc13)N1CC(COCCCCc3c(Cl)cc4[nH]ncc4c3-2)CC2(CC2)C1 (some centres unmarked) [Example 228] | 12 nM | 8 nM | 181 nM | 487 nM | – | – |
| Cc1cc2[nH]ncc2c2c1CCC[C@@H](O)CC[C@@H]1CCCN(C1)c1nc(OC[C@@]34CCCN3C[C@H](F)C4)nc3c(F)c-2ncc13 [Example 237, (14R,17S)-30-Fluoro-24-(((2R,7aS)-2-fluorotetrahydro-1H-pyrrolo[1,2-a]pyrrol-7a(5H)-yl)methoxy)-9-methyl-5,6,21,23,25,29-hexaazahexacyclo[24.3.1.1˜17,21˜.0˜2,10˜.0˜3,7˜.0˜22,27˜]hentriaconta-1(30),2,4,7,9,22,24,26,28-nonaen-14-ol] | 19 nM | 10 nM | 279 nM | 5000 nM | – | – |
| Cc1cc2[nH]ncc2c2c1CCC[C@H](O)CC[C@H]1CCCN(C1)c1nc(OC[C@@]34CCCN3C[C@H](F)C4)nc3c(F)c-2ncc13 [Example 238, (14S,17R)-30-fluoro-24-(((2R,7aS)-2-fluorotetrahydro-1H-pyrrolo[1,2-a]pyrrol-7a(5H)-yl)methoxy)-9-methyl-5,6,21,23,25,29-hexaazahexacyclo[24.3.1.1˜17,21˜.0˜2,10˜.0˜3,7˜.0˜22,27˜]hentriaconta-1(30),2,4,7,9,22,24,26,28-nonaen-14-ol] | 45 nM | 24 nM | 861 nM | 5000 nM | – | – |
| Fc1cc2[nH]ncc2c2c1CCCCOC[C@@H]1CCCCN(C1)c1nc(OC[C@@]34CCCN3C[C@H](F)C4)nc3c(F)c-2ncc13 [Example 239, (26R)-18,32-difluoro-4-(((2R,7aS)-2-fluorotetrahydro-1H-pyrrolo[1,2-a]pyrrol-7a(5H)-yl)methoxy)-24-oxa-1,3,5,9,14,15-hexaazahexacyclo[24.4.1.1~6, 10~.0~2,7~.0~11,19~.0~12,16~]dotriaconta-2,4,6(32),7,9,11,13,16,18-nonaene] | 6 nM | 5 nM | 82.9 nM | 527 nM | – | – |
| Fc1c2ncc3c(nc(OC[C@@]45CCCN4C[C@H](F)C5)nc13)N1CCC[C@H](C1)c1noc(n1)CCCc1c(Cl)cc3[nH]ncc3c1-2 [Example 247, (18R)-9-chloro-31-fluoro-25-(((2R,7aS)-2-fluorotetrahydro-1H-pyrrolo[1,2-a]pyrrol-7a(5H)-yl)methoxy)-15-oxa-5,6,16,22,24,26,30,33-octaazaheptacyclo[25.3.1.1~14,17~.1~18,22~.0~2,10~.0~3,7~.0~23,28~]tritriaconta-1(31),2,4,7,9,14(33),16,23,25,27,29-undecaene] | 9 nM | 5 nM | 31.2 nM | 446 nM | – | – |
